Experimental data from PMC10951960, “CGP7930 - An allosteric modulator of GABABRs, GABAARs and inwardly-rectifying potassium channels” (Neuropharmacology, 2023).

Molecular target: T1, Kir3.1/3.2 channels (GIRK) (Homo sapiens, UniProt P48051+P48549)
T1 construct: expressed in transfected cells
T1 sequence (P48549 1-501): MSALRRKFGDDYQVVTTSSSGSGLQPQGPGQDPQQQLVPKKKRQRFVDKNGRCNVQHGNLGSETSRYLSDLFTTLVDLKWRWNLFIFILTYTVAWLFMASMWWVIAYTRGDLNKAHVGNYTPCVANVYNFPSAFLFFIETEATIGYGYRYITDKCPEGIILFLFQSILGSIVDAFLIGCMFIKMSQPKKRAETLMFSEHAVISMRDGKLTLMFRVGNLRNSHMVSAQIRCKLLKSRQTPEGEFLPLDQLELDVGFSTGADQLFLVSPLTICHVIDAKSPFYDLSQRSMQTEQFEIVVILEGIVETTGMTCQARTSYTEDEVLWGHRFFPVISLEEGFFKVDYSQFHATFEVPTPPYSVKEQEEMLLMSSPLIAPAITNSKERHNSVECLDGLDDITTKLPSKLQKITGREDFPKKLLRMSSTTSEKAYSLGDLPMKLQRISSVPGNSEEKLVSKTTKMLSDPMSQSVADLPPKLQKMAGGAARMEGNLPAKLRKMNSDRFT
T1 sequence (P48051 1-423): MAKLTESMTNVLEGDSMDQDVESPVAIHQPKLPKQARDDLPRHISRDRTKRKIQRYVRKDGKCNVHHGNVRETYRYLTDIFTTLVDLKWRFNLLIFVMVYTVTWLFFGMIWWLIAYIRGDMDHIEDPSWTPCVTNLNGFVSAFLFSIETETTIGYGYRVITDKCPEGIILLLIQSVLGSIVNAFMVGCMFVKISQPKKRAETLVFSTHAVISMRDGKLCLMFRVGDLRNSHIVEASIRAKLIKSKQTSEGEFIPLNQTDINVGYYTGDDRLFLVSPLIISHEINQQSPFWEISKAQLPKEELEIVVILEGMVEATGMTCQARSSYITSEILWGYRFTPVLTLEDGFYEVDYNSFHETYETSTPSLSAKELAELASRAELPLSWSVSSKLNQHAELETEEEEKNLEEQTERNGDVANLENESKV
Assay: block of basally-active K+ currents in GIRK cells not expressing GABABRs, high K+ Krebs
Assay type: cell-based
Protocol: HEK-293T cells were maintained in Dulbecco's modified Eagle's medium containing 10% (v/v) fetal calf serum (FCS), 100 U/ml penicillin-G, 100 μg/ml streptomycin in 95% air/5% CO2 at 37 °C. All cell culture reagents were acquired from ThermoFisher unless otherwise stated. Cells were plated on 22 mm glass coverslips (VWR, UK), coated with poly-L-lysine (Sigma) and transfected using a calcium phosphate method with cDNAs for eGFP, α, β, γ or δ, in a 1:1:1:1 ratio ([Hannan et al., 2020]) applied 1–2 h after cell plating. HEK-293 cells stably expressing Kir3.1/3.2 channels ([Leaney et al., 2000]) were grown in a selection media containing G418 (0.5 mg/ml) and Zeocin (0.4 mg/ml) and passaged, and plated, as for the HEK-293T cells above. These cells are referred to as GIRK cells throughout the text and were transiently transfected with cDNAs for eGFP, GABAB R1a and R2 in a 1:1:5 ratio applied 1–2 h after cell plating.
GABA-activated currents were recorded 24 h after transfection of HEK-293T or GIRK cells. Spontaneous inhibitory postsynaptic currents (sIPSCs) were recorded from cultured hippocampal neurons at 12–17 days in vitro (DIV). Cells were superfused with a saline solution containing (mM): 140 NaCl, 4.7 KCl, 2.52 CaCl2, 1.2 MgCl2, 11 glucose, and 5 HEPES; pH 7.4. sIPSCs from hippocampal culture neurons were recorded in the presence of 2 mM kynurenic acid to block excitatory neurotransmission. […] GABABR-activated K^+ currents in cultured neurons were recorded in the additional presence of 2 mM kynurenic acid and 20 μM picrotoxin.
Borosilicate glass electrodes (3–5 MΩ) were filled with a K^+-based internal solution for recording GIRK currents containing (mM): 120 KCl, 2 MgCl2, 11 EGTA, 30 KOH, 10 HEPES, 1 CaCl2, 1 GTP, 2 ATP, 14 creatine phosphate, pH 7.0. GABAAR currents and sIPSCs were recorded with a Cs-based internal solution containing (mM): 120 CsCl, 1 MgCl2, 11 EGTA, 30 KOH, 10 HEPES, 1 CaCl2, and 2 K2ATP; pH 7.2. […]

## CC(C)(CO)Cc1cc(C(C)(C)C)c(O)c(C(C)(C)C)c1 [CGP7930, 3-(3′,5′-Di-tert-butyl-4′-hydroxy) phenyl-2,2-dimethylpropanol]
10 or 100 μM
  effect on GIRK-mediated inwardly-rectifying currents (I–V, −20 to −120 mV): inhibition
GIRK cells without GABABRs, −60 mV, high K+
  threshold for whole-cell outward currents: 0.3 µM
GIRK cells, I–V
  effect on additional outward rectification (depolarising steps): inhibited
